Here are results for one compound from PMC7738869, “A novel STAT3 inhibitor W2014-S regresses human non-small cell lung cancer xenografts and sensitizes EGFR-TKI acquired resistance” (Theranostics, 2021).

The target in test [1] is full-length wild-type STAT3 (Homo sapiens, UniProt P40763). Briefly: Surface plasmon resonance analysis of binding to STAT3. The conditions noted are these: SPR. As for the experimental part:
Biacore 8K and Biacore Insight Evaluation software were used to analyze the interaction between the agents and the protein full-length wild-type STAT3 to detect the binding affinity. Purified STAT3 (100 μg/mL) without Tris and glycerin was injected onto the CM5 Chip (GE, USA) for immobilization. Several concentrations of W2014-S or W2014-R dissolved in running buffer (1×PBS with filtration, 0.01% DMSO) were flown over the chip to produce response signals. The kinetics and affinities were calculated by the Biacore Insight Evolution software, and the results were determined as the binding affinity (KD).
A general note: Surface plasmon resonance follows binding to a sensor surface in real time, without labels.

The test system of test [2] is A549 cells. Description: Cell viability assay (CCK-8), A549. The test is classed as cell-based. The following applies: Homo sapiens, A549, 72 h, read-out: IC50 cell proliferation, A549, 72 h. The procedure: (§1) Cell proliferation was measured using the Cell Counting Kit-8 (CCK-8, B34304, Bimake, USA). A549 (2 × 10^3/100 μL/well), PC-9 (3 × 10^3/100 μL/well) or PC-9/GR cells (3 × 10^3/100 μL/well) were plated into each well of 96-well plates (Costar, USA). […] Then, 10 μL of CCK-8 was added to each well, and cells were incubated for 1-4 h until the color of untreated controls turned to orange. The absorbance (A) was measured by a microplate reader (FLUOstar Omega-ACU, USA) at test and reference wavelengths of 450 nm. The percentage of growth was calculated as Cell viability (%) = [A (Compound +) - A (Blank) ] / [A (Compound -) - A (Blank) ] × 100%. Cell viability meant proliferation of cells. Each experiment was done at least in triplicate, and thrice independently.

For the next test, the system named is PC-9 cells. Briefly: Cell viability assay (CCK-8), PC-9. The format is cell-based. The following applies: Homo sapiens, PC-9, 72 h, read-out: IC50 cell proliferation. The procedure: as §1
The subject of test [3] is A549 cells. Description: Cell apoptosis assay (Annexin V-FITC/PI flow cytometry), A549. The following applies: A549, 1.0 μM, 72 h. The test is classed as cell-based, human. As for the experimental part: Briefly, aliquots of 2 × 10^5 cells were seeded into 6-well plates and incubated for 24 h at 37 °C. […] After trypsinization and gently washing cells once with medium, the cells were washed twice with cold PBS. The precipitation was resuspended by 400 μL of 1 × binding buffer, and then resuspended cells were transferred into new 1.5 mL EP tubes. Then 3 μL of Annexin V-FITC and 5 μL of propidium iodide were added to the resuspended cells with further incubation at room temperature for 15 min in the dark. The analysis was done on Guava easyCyte (USA) and FlowJo 7.6 software.
(A flow cytometer gives signals particle by particle.)

In test [4] the test system is A549 cells with STAT3 knock down / knock out. Description: Cell proliferation assay in A549 cells with STAT3 knocked down (siRNA) or knocked out (CRISPR/Cas9). The format is cell-based, human. The source says: To knockout the STAT3 gene in A549 cells using CRISPR/Cas9 system, the lentiCRISPRv2 vector (gift from Professor Junjian Wang, Sun Yat-Sen University, China) was used. An optimized guide RNA (gRNA) targeting the exon2 of STAT3 was designed in an online CRISPR design tool (http://crispor.tefor.net/). Then the guide RNA (synthesized by Sangon Biotech) inserted into lentiCRISPRv2 vector and the recombinant plasmid (sgSTAT3) was transfected and amplified in E.coli JM109. The confirmed and purified sgSTAT3 plasmid was transfected into A549 cells using lentivirus, after 48h post-transfection, cells were selected by introducing into 3 μg/mL puromycin for 2 weeks. Then the puromycin-resistant cells were planted into 96-wells plate with a density of one single cell per well and expanse to select the STAT3-konckout cells. The STAT3-konckout cells isolated from the single-colony were verified by western blotting analysis. The gRNA used to knockout STAT3 as follows,
Cell proliferation was measured using the Cell Counting Kit-8 (CCK-8, B34304, Bimake, USA). […] The absorbance (A) was measured by a microplate reader (FLUOstar Omega-ACU, USA) at test and reference wavelengths of 450 nm. The percentage of growth was calculated as Cell viability (%) = [A (Compound +) - A (Blank) ] / [A (Compound -) - A (Blank) ] × 100%. […]

The next test deals with STAT3. Briefly: STAT3-dependent dual-luciferase reporter assay in 293T cells. The format is cell-based, human. The conditions noted are these: 293T, 0, 0.3, 1 μM, 24 h. The procedure: The STAT3-dependent luciferase reporter, pGL3-STAT3, contained seven copies of the STAT3-specific binding sequence ([…]) in the C-reactive protein gene promoter, and drove firefly luciferase expression. The new construct was confirmed by sequencing. For luciferase studies, 293T cells or A549 cells in 96-well plates were transiently co-transfected with the appropriate plasmids (10 ng TKRL as internal control vector for normalizing and 50 ng of pGL3-STAT3) using Lipofectamine 2000 (11668500, Invitrogen, Carlsbad, CA, USA) which was following the manufacturer's protocol. After 24 h, HEK-293T cells were treated with 0-1 μM W2014-S for 24 h, and stimulated with IL-6 (100 ng/mL, PeproTech) for 1 h or EGF (50 ng/mL, PeproTech) for 30 min. Subsequently, cytosolic extracts were prepared for dual-luciferase reporter assay.
Background: A reporter such as luciferase makes a cellular process visible.

A further test deals with STAT3-STAT3 dimerization (Homo sapiens, UniProt P40763). Briefly: Co-immunoprecipitation of HA-STAT3 and Flag-STAT3 in A549 cells. The format is cell-based. The arrangement: expressed in transfected cells; host or cells: A549. The following applies: A549, 0, 0.3, 1 μM, 24 h. As for the experimental part: Cells or tumor tissue were lysed with RIPA buffer (Beyotime, Shanghai, China) supplemented with protease inhibitors (Beyotime, Shanghai, China) and phosphatase inhibitors (Bimake, USA). Lysates were denatured by heating for 5 min at 99 °C and loaded on 4-10% SDS-polyacrylamide gel electrophoresis. Then the proteins were transferred to polyvinylidene fluoride (PVDF) membranes (Millipore, USA). The membranes were blocked and probed with primary antibodies and secondary HPR-conjugated antibodies. At last the membranes were detected by chemiluminescence (Tanon, Shanghai, China). For co-immunoprecipitation experiments, 293T cells were plated and grew to about 80% confluency, then co-transfected with plasmids of HA-STAT3 and Flag-STAT3 using Lipofectamine 2000. After 24 h, cells were treated with different concentrations of W2014-S for following 24 h, and stimulated with IL-6 (100 ng/mL) for 1 h. Cells were lysed with IP RIPA buffer (Beyotime, Shanghai, China) supplemented with protease inhibitors (Beyotime, Shanghai, China) and phosphatase inhibitors (Bimake, America), and lysates were cultured with Anti-flag Affinity Gel (B23102, Bimake, USA) overnight at 4 ℃. The gel was washed by PBST for three times and added 1×loading buffer and denatured by heating for 5 min at 99 ℃. Then the proteins were resolved on SDS-PAGE, transferred to PVDF membranes and analysed with immunoblotting.
Sequence of STAT3-STAT3 dimerization (P40763 whole entry): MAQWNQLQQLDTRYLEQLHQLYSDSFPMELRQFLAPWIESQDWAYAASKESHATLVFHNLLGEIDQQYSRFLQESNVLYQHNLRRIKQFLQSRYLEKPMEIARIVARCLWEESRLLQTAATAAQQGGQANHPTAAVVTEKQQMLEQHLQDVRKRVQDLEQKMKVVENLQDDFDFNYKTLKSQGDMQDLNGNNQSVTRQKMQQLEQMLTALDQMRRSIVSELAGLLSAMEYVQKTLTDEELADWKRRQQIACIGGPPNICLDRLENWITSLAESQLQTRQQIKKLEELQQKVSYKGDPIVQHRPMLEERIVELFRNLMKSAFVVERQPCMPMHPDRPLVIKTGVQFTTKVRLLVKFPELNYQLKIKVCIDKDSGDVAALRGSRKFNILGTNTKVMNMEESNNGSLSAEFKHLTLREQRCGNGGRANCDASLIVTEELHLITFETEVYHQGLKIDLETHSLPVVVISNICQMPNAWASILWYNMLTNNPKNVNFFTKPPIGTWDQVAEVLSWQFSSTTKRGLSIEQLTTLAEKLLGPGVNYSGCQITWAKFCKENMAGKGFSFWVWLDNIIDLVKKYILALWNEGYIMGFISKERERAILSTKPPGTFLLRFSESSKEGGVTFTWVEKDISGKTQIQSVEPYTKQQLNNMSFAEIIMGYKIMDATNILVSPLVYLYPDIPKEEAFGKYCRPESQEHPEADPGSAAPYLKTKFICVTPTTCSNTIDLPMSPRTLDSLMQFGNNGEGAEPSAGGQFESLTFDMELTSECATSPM

Sequence of full-length wild-type STAT3 (P40763 whole entry): as above

Take `C[C@H](Oc1ccc(-c2nc3nc(C4=CCN(C(=O)OC(C)(C)C)CC4)ccc3[nH]2)cc1)c1ccccc1` [W2014-S]: the Kd (in general, the concentration at which binding is half-saturated) in test [1] was 3640 nM. For the same compound, the IC50 in the test on A549 cells [2] amounted to 890 nM; with PC-9 cells, 2360 nM. The apoptosis result in the test on A549 cells [3] was “induced apoptosis”. Moreover, the “anti-cancer activities in STAT3 knocked out cells” value in test [4] (A549, Crispr/cas9) is reported as “significantly attenuated”. Also, in test [4] (A549, siRNA interference), the “anti-cancer activities in STAT3 knocked down cells” value is reported as “significantly attenuated”. The “STAT3-dependent luciferase reporter activity induced by IL-6” value with STAT3 is “dose-dependently inhibited”. Moreover, the “dimerization of HA-STAT3 and Flag-STAT3” value at STAT3-STAT3 dimerization is recorded as “inhibited by W2014-S in a dosage-dependent manner”.
